The values below come from patent US8742117B2, “Oxime derivatives” (Cadila Healthcare Limited, priority 2008, dated 2014).

Usually EC50 stands for the concentration at which the effect is half-maximal.

One assay relates to Sprague Dawley rats. Briefly: Feed intake in Sprague Dawley rats. Conditions: 25 mg/kg i.p., cumulative feed intake vs vehicle control. The format is in vivo, rat. From the text:
In Vivo Efficacy Studies: Feed Intake in Sprague Dawley Rats:
Sprague Dawley rats of 6-8 week age were be used for this experiment they were be kept for acclimatization in reversed light/dark cycle for 15 days. Animals will have free access to a standard chow diet and water during acclimatization period. After 15 days reversed light/dark cycle acclimatization animals were trained for fasting induced feed intake for 5 days till they show consistent feed intake. Grouping was done based on the monitored feed intake the training days. On treatment day each group of animals were dosed with test compound or vehicle by appropriate routes of administration (orally or intraperitoneally). Exactly 30 min. after treatment, measured amount of standard chow diet was provided and recorded as 0-min feed offered. Then subsequently 2, 4, 6 and 24 hour after 0-min, feed intake was measured and the cumulative feed intakes were calculated. The change in cumulative feed intake as compare to vehicle treated control at each time point was calculated for test compound and results were provided in table 2

In the next assay the target is T1, human GPR 119 receptor (Homo sapiens, UniProt Q8TDV5).
T1 construct: expressed in transfected cells
T1 sequence (Q8TDV5 1-335): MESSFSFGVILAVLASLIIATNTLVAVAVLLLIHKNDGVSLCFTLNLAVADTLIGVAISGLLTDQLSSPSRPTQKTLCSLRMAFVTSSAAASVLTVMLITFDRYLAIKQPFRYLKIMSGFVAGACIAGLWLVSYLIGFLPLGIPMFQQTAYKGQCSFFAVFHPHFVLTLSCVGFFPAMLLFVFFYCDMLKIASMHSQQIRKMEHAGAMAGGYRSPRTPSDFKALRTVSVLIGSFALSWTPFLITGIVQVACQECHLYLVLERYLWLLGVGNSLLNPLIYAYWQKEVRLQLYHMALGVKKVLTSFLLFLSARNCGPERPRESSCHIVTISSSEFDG
Briefly: cAMP assay in stable cell line expressing recombinant human GPR 119 receptor. The class given is cell-based. Conditions: intracellular cAMP, recombinant human GPR 119 cell line. The text has this: A stable cell line expressing recombinant human GPR 119 receptor was established and used to investigate the efficacy of the compounds of the invention based on the intracellular levels of cyclic AMP (cAMP) using commercially available cAMP kits. Compounds of the invention produced a concentration dependent increase in cAMP level and EC50 values of representative compounds were provided in table 1 and table 2 respectively.
For orientation: Cyclic AMP is a second messenger, typically raised through Gs and lowered through Gi signalling.

With `CC(=NOc1ncnc(N2CCC(c3nc(C(C)C)no3)CC2)c1[N+](=O)[O-])c1ccc2c(c1)OCO2` [Example 4, 1-(benzo[d][1,3]dioxol-5-yl)ethanone O-6-(4-(3-isopropyl-1,2,4-oxadiazol-5-yl)piperidin-1-yl)-5-nitropyrimidin-4-yl oxime], in the assay with Sprague Dawley rats, the “% reduction in food in take 2 hour” value came to 45.3%, the “% reduction in food in take 4 hour” value came to 29%, the “% reduction in food in take 6 hour” value worked out at 14.1% and the “% reduction in food in take 24 hour” value turned out to be 0%. Moreover, the “% activity at 1 μM” value at human GPR 119 receptor stood at 47.28%.

`CC(=NOc1ncnc(N2CCC(c3nc(C(C)C)no3)CC2)c1C)c1ccc2c(c1)OCO2` [Example 5, 1-(benzo[d][1,3]dioxol-5-yl)ethanone O-6-(4-(3-isopropyl-1,2,4-oxadiazol-5-yl)piperidin-1-yl)-5-methylpyrimidin-4-yl oxime]: in the assay on Sprague Dawley rats, the “% reduction in food in take 2 hour” value is given as 39%, the “% reduction in food in take 4 hour” value amounted to 40%, the “% reduction in food in take 6 hour” value is given as 31% and the “% reduction in food in take 24 hour” value is reported as 8.2%. Also, the “% activity at 1 μM” value at human GPR 119 receptor was 58.37%.

For the molecule `COc1ccc(C(C)=NOc2ncnc(N3CCC(c4nc(C(C)C)no4)CC3)c2[N+](=O)[O-])cc1` [Example 7, 1-(4-methoxyphenyl)ethanone O-6-(4-(3-isopropyl-1,2,4-oxadiazol-5-yl)piperidin-1-yl)-5-nitropyrimidin-4-yl oxime], in the assay with Sprague Dawley rats, the “% reduction in food in take 2 hour” value is listed as 53.5%, the “% reduction in food in take 4 hour” value worked out at 42%, the “% reduction in food in take 6 hour” value is 36% and the “% reduction in food in take 24 hour” value was 12.9%. The “% activity at 1 μM” value at human GPR 119 receptor turned out to be 88.99%.

Regarding `CC(=NOc1ncnc(N2CCC(c3nc(C(C)C)no3)CC2)c1C)c1ccc(F)cc1` [Example 8, 1-(4-fluorophenyl)ethanone O-6-(4-(3-isopropyl-1,2,4-oxadiazol-5-yl)piperidin-1-yl)-5-methylpyrimidin-4-yl oxime], in the assay with Sprague Dawley rats, the “% reduction in food in take 2 hour” value amounted to 32%, the “% reduction in food in take 4 hour” value worked out at 17%, the “% reduction in food in take 6 hour” value turned out to be 12% and the “% reduction in food in take 24 hour” value was found to be 4%. Besides, the “% activity at 1 μM” value at human GPR 119 receptor is reported as 64.11%.

For `CC(=NOc1ncnc(N2CCC(c3nc(C(C)C)no3)CC2)c1[N+](=O)[O-])c1ccc(F)cc1` [Example 9, 1-(4-fluorophenyl)ethanone O-6-(4-(3-isopropyl-1,2,4-oxadiazol-5-yl)piperidin-1-yl)-5-nitropyrimidin-4-yl oxime], in the assay with Sprague Dawley rats, the “% reduction in food in take 2 hour” value was 41%, the “% reduction in food in take 4 hour” value is recorded as 31%, the “% reduction in food in take 6 hour” value is 23% and the “% reduction in food in take 24 hour” value is listed as 12%. At human GPR 119 receptor, the “% activity at 1 μM” value is recorded as 104.77% and the EC50 came out at 746 nM.

In the case of `CC(=NOc1ncnc(N2CCC(c3nc(C(C)C)no3)CC2)c1[N+](=O)[O-])c1cccnc1` [Example 10, 1-(pyridin-3-yl)ethanone O-6-(4-(3-isopropyl-1,2,4-oxadiazol-5-yl)piperidin-1-yl)-5-nitropyrimidin-4-yl oxime], in the assay on Sprague Dawley rats, the “% reduction in food in take 2 hour” value is on record as 38%, the “% reduction in food in take 4 hour” value is 31%, the “% reduction in food in take 6 hour” value is reported as 25.4% and the “% reduction in food in take 24 hour” value is 10%. For the same molecule, the “% activity at 1 μM” value on human GPR 119 receptor came to 31.37%.

On to `CC(=NOc1ncnc(N2CCC(c3nc(C(C)C)no3)CC2)c1[N+](=O)[O-])c1ccc(S(C)(=O)=O)cc1` [Example 11, 1-(4-(methylsulfonyl)phenyl)ethanone O-6-(4-(3-isopropyl-1,2,4-oxadiazol-5-yl)piperidin-1-yl)-5-nitropyrimidin-4-yl oxime], for which, in the assay with Sprague Dawley rats, the “% reduction in food in take 2 hour” value amounted to 76.2%, the “% reduction in food in take 4 hour” value was 43.1%, the “% reduction in food in take 6 hour” value was determined as 36% and the “% reduction in food in take 24 hour” value is 17%. Besides, the “% activity at 1 μM” value on human GPR 119 receptor is 103.98%.

For the molecule `CC(=NOc1ncnc(N2CCC(c3nc(C(C)C)no3)CC2)c1C)c1ccc(OC(F)(F)F)cc1` [Example 16, 1-(4-(trifluoromethoxy)phenyl)ethanone O-6-(4-(3-isopropyl-1,2,4-oxadiazol-5-yl)piperidin-1-yl)-5-methylpyrimidin-4-yl oxime], in the assay on Sprague Dawley rats, the “% reduction in food in take 2 hour” value came out at 43%, the “% reduction in food in take 4 hour” value was 25%, the “% reduction in food in take 6 hour” value was determined as 16% and the “% reduction in food in take 24 hour” value was determined as 4.5%. Besides, the “% activity at 1 μM” value at human GPR 119 receptor came out at 78.54%.

`CC(=NOc1ncnc(N2CCC(c3nc(C(C)C)no3)CC2)c1C)c1ccc2ccccc2c1` [Example 22, 1-(naphthalen-2-yl)ethanone O-6-(4-(3-isopropyl-1,2,4-oxadiazol-5-yl)piperidin-1-yl)-5-methylpyrimidin-4-yl oxime]: in the assay with Sprague Dawley rats, the “% reduction in food in take 2 hour” value came out at 30%, the “% reduction in food in take 4 hour” value was found to be 43%, the “% reduction in food in take 6 hour” value was 44% and the “% reduction in food in take 24 hour” value came out at 14%. Further, at human GPR 119 receptor, the “% activity at 1 μM” value turned out to be 18.5%.

With `CC(=NOc1ncnc(N2CCC(c3nc(C(C)C)no3)CC2)c1[N+](=O)[O-])c1ccc2ccccc2c1` [Example 23, 1-(naphthalen-2-yl)ethanone O-6-(4-(3-isopropyl-1,2,4-oxadiazol-5-yl)piperidin-1-yl)-5-nitropyrimidin-4-yl oxime], in the assay on Sprague Dawley rats, the “% reduction in food in take 2 hour” value is given as 38%, the “% reduction in food in take 4 hour” value was 26%, the “% reduction in food in take 6 hour” value is reported as 26% and the “% reduction in food in take 24 hour” value was determined as 4%. In addition, the “% activity at 1 μM” value at human GPR 119 receptor is reported as 17.7%.

As for `CCCCC(=NOc1ncnc(N2CCC(c3nc(C(C)C)no3)CC2)c1[N+](=O)[O-])c1ccccc1` [Example 26, 1-phenylpentan-1-one O-6-(4-(3-isopropyl-1,2,4-oxadiazol-5-yl)piperidin-1-yl)-5-nitropyrimidin-4-yloxime], the “% activity at 1 μM” value at human GPR 119 receptor came out at 10.2%.

As to `CC(=NOc1ncnc(N2CCC(c3nc(C(C)C)no3)CC2)c1[N+](=O)[O-])c1cccs1` [Example 28, 1-(thiophen-2-yl)ethanone O-6-(4-(3-isopropyl-1,2,4-oxadiazol-5-yl)piperidin-1-yl)-5-nitropyrimidin-4-yl oxime], the “% activity at 1 μM” value on human GPR 119 receptor came out at 33.4%.

On to `Cc1c(ON=C(c2ccc(F)cc2)c2ccc(F)cc2)ncnc1N1CCC(c2nc(C(C)C)no2)CC1` [Example 29, bis(4-fluorophenyl)methanone O-6-(4-(3-isopropyl-1,2,4-oxadiazol-5-yl)piperidin-1-yl)-5-methylpyrimidin-4-yl oxime], for which the “% activity at 1 μM” value on human GPR 119 receptor turned out to be 13.7%.

On to `CCCCC(=NOc1ncnc(N2CCC(c3nc(C(C)C)no3)CC2)c1C)c1ccccc1` [Example 30, 1-phenylpentan-1-one O-6-(4-(3-isopropyl-1,2,4-oxadiazol-5-yl)piperidin-1-yl)-5-methylpyrimidin-4-yl oxime], for which the “% activity at 1 μM” value on human GPR 119 receptor is on record as 24.65%.

Take `CC(C)c1noc(C2CCN(c3ncnc(ON=C(c4ccc(F)cc4)c4ccc(F)cc4)c3[N+](=O)[O-])CC2)n1` [Example 31, bis(4-fluorophenyl)methanone O-6-(4-(3-isopropyl-1,2,4-oxadiazol-5-yl)piperidin-1-yl)-5-nitropyrimidin-4-yl oxime]: the “% activity at 1 μM” value on human GPR 119 receptor came out at 12.18%.

As for `CC(=NOc1ncnc(N2CCC(c3nc(C(C)C)no3)CC2)c1C)c1ccccc1` [Example 32, Acetophenone O-6-(4-(3-isopropyl-1,2,4-oxadiazol-5-yl)piperidin-1-yl)-5-methylpyrimidin-4-yloxime], at human GPR 119 receptor, the “% activity at 1 μM” value is given as 32.16%.

Consider `CC(=NOc1ncnc(N2CCC(c3nc(C(C)C)no3)CC2)c1[N+](=O)[O-])c1ccccc1` [Example 33, Acetophenone O-6-(4-(3-isopropyl-1,2,4-oxadiazol-5-yl)piperidin-1-yl)-5-nitropyrimidin-4-yl oxime], for which the “% activity at 1 μM” value at human GPR 119 receptor is on record as 59.34%.
